In patent publication US20110046067A1, “COMPOSITIONS COMPRISING HUMAN EGFR-siRNA AND METHODS OF USE” (Intradigm Corporation, priority 2007, published 2011):
“Also recorded” adds a separate entry of the source.

Tested on: hEGFR
Assay: hEGFR dose titration in HT-29 cells (electroporation, hEGFR ELISA)
Format: cell-based, human
Conditions: 0.01-10 ug siRNA per 2×10^6 cells/200 μl, 48 hours post transfection
Experimental: The selected hEGFR-siRNA, hEGFR-25-1 and hEGFR-25-2, were tested for their capability of inhibiting hEGFR expression in a dose-dependent manner. The HT-29 cells were transfected with the EGFR-siRNAs in a range of 0.01-10 ug siRNA per 2×10^6 cells/200 μl using an electroporation mediated transfection method. The concentration of EGFR protein in the transfected HT-29 cells was measured at 48 hours post transfection using a hEGFR ELISA kit (R&D Systems, Inc.). The concentration of hEGFR protein was normalized against total cellular protein and the percentage of hEGFR inhibition was normalized against cells treated with a mock process without siRNA.
Two siRNA candidates, hEGFR-25-1 and hEGFR-25-2, were further tested for activity in a dose titration experiment.

With “5′-r(CACAGUGGAGCGAAUUCCUUUGGAA)-3′ (chain 2 UUCCAAAGGAAUUCGCUCCACUGUG; siRNA; RNA, backbone not given here) [hEGFR-25-1]” the “dose-dependent inhibition of hEGFR production” value was “inhibited hEGFR expression in a dose-dependent manner; also recorded: dose-dependent inhibition”.

“5′-r(CGCAAAGUGUGUAACGGAAUAGGUA)-3′ (chain 2 UACCUAUUCCGUUACACACUUUGCG; siRNA; RNA, backbone not given here) [hEGFR-25-2]” was tested, and the “dose-dependent inhibition of hEGFR production” value was “inhibited hEGFR expression in a dose-dependent manner; also recorded: dose-dependent inhibition”.
